According to publication PMC11632414 (2024):

Tests used:
[1] = test system: 23TAG (DNA, G4) TAGGGTTAGGGTTAGGGTTAGGG; test: UV-Vis titration, Benesi-Hildebrand; settings: K+ (20 mM potassium phosphate); pH 7, 25 °C; 5 μM porphyrin titrated with DNA
[2] = test system: CMA (DNA, G4) TAGGGAGGGTAGGGAGGGT; test: UV-Vis titration, Benesi-Hildebrand; settings: K+ (20 mM potassium phosphate); pH 7, 25 °C; 5 μM porphyrin titrated with DNA

Kb [1]: (1.5±0.4)×10^6 M^-1 | Kb [2]: (1.5±0.6)×10^6 M^-1
Structure (SMILES): C[n+]1ccc(-c2c3nc(c(-c4cc[n+](C)cc4)c4ccc([nH]4)c(-c4cc[n+](C)cc4)c4nc(c(-c5cc[n+](C)cc5)c5ccc2[nH]5)C=C4)C=C3)cc1
